According to patent US20210289794A1, “COMPOSITIONS AND RELATED METHODS FOR AGRICULTURE” (Flagship Pioneering Innovations V, Inc., priority 2018, published 2021):
Peptide text beside a SMILES is read from it.

Test system: Candidatus Pantoea carbekii
Test: Quantification of P. carbekii titers by RT-qPCR in H. halys nymphs hatched from treated eggs
Assay type: in vivo, Halyomorpha halys
Settings: for levels of P. carbekii (symbiont levels per host; ratio of P. carbekii dnaK to H. halys 60s expression): Example 5: egg mass treatment, late 2nd instars, vs water control, FIG. 5; for levels of P. carbekii (ratio of P. carbekii dnaK to H. halys 60s expression): third instars collected, vs negative control
Description: Total RNA was extracted from nymphs using total RNA isolation and purification kits (both from Thermo Fisher Scientific), and the extracted RNA was eluted in 100 μL water. […] Each of the PCR mixtures was 10 μL in volume. RT-qPCR was performed using a PCR amplification ramp of 1.6° C./s and the following conditions: 1) 48° C. for 30 min; 2) 95° C. for 10 minutes; 3) 95° C. for 15 seconds; 4) 55° C. for 30 seconds; 5) repeat steps 3-4 40×, 6); 95° C. for 15 seconds; 7) 55° C. for 1 minute; 8) ramp change to 0.15° C./s; 9) 95° C. for 1 second. RT-qPCR data was analyzed using analytic software (Thermo Fisher Scientific).
Working concentrations of the PHA synthesis inhibitors (vanillin, levulinic acid, acrylic acid (AA), and 2-bromooctanoic acid (2BA)) were made up to 100 μg/ml in water. The solutions of PHA inhibitors were spiked with a non-ionic wetting solution to a final concentration of 0.025% to increase the wettability and spreading of the agents on the eggs. As a negative control, no agents were added to the 0.025% non-ionic wetting solution, and as a positive control, 100 μg/ml of the antibiotic rifamycin S was used. Egg masses on leaf disks were removed from the colony in a single day during peak egg production. Each egg mass was then placed in a container with a paper towel at the bottom, and a tube of water plugged with cotton was provided as a water source for the hatchlings. 100 μl of the agent was pipetted onto the eggs to wet them completely. This allowed the agent to interact directly with the bacteria before the bacteria was able to colonize the host. Once the 1st instar hatchlings molted to the 2nd instar stage, food was provided in the form of 500 mg diet pellets (see “Halyomorpha halys lab colony rearing and maintenance” above). Late 2nd instars were collected and frozen to extract DNA to assay for the symbiont levels, as described in Example 4. […]

[1] = 100 μg/ml in water with 0.025% non-ionic wetting solution, 100 μl
[2] = Example 6: egg mass treatment, 100 μg/ml in water with 0.025% Silwet L-77, 100 μl, FIG. 6

Row | Structure (SMILES) | levels of P. carbekii (symbiont levels per host; ratio of P. carbekii dnaK to H. halys 60s expression) [1] | levels of P. carbekii (ratio of P. carbekii dnaK to H. halys 60s expression) [2] | levels of P. carbekii (ratio of P. carbekii dnaK to H. halys 60s expression) (Example 7: egg mass treatment, 100 μg/ml in water with 0.025% non-ionic wetting solution, 100 μl, FIG. 7)
1 | CCCCCCC(Br)C(=O)O (centres unmarked) [2-bromooctanoic acid] | reduction in the symbiont levels per host |  | 
2 | CO[C@H]1/C=C/O[C@@]2(C)Oc3c(C)c(O)c4c(c3C2=O)C(=O)C=C(NC(=O)/C(C)=C\C=C\[C@H](C)[C@H](O)[C@@H](C)[C@@H](O)[C@@H](C)[C@H](OC(C)=O)[C@@H]1C)C4=O [Rifamycin S] | significantly lower | significantly lower | significantly lower
3 | C=CC(=O)O [acrylic acid] | reduction in the symbiont levels per host |  | 
4 | CC[C@H](C)[C@H](N)C1=N[C@H](C(=O)N[C@@H](CC(C)C)C(=O)N[C@H](CCC(=O)O)C(=O)N[C@H](C(=O)N[C@H]2CCCCNC(=O)[C@H](CC(N)=O)NC(=O)[C@@H](CC(=O)O)NC(=O)[C@H](Cc3cnc[nH]3)NC(=O)[C@@H](Cc3ccccc3)NC(=O)[C@H]([C@@H](C)CC)NC(=O)[C@@H](CCCN)NC2=O)[C@@H](C)CC)CS1 [bacitracin] (HELM PEPTIDE1{[CC[C@H](C)[C@H](N)C1=N[C@H](C(=O)[*:2])CS1].L.[dE].I.K.[NCCC[C@@H](N[*:1])C(=O)[*:2]].I.[dF].H.[dD].N}$PEPTIDE1,PEPTIDE1,5:R3-11:R2$$$V2.0) |  | significantly lower | 
5 | CC(=O)CCC(=O)O [levulinic acid] | reduction in the symbiont levels per host |  | 
6 | COc1cc(C=O)ccc1O [vanillin] | reduction in the symbiont levels per host |  | 
